# Test results: ChEMBL document CHEMBL3885861, “Open TG-GATES”
# Organism: Rattus norvegicus
# Assay: Open TG-GATES - Regimen: Daily Repeat
# Type: toxicity, organism-based, Sprague-Dawley
# Parameters: regimen Daily Repeat, gender Male, age 6 weeks
# Conditions: in vivo, po, 0 mg/kg, […], route gavage, dose level Control; for KIDNEY_L / KIDNEY_R / KIDNEY_TOTAL: tissue Kidney; for LIVER: tissue Liver; for A/G / ALP / ALT / AST / BUN / CRE / Ca / Cl / DBIL / GLC / IP / K / LDH / Na / PL / RALB / TBIL / TC / TG / TP / gamma-GTP: tissue Plasma
compound,measurement,setting,value
O=C(O)c1ccccc1Nc1ccccc1 [FENAMIC ACID],Fbg,"tissue Blood, time 28 day",296 mg/dL
same,Hb,"tissue Blood, time 28 day",14.9 g/dL
same,Ht,"tissue Blood, time 28 day",43%
same,Lym,"tissue Blood, time 28 day",79.2%
same,MCH,"tissue Blood, time 28 day",19.4 pg
same,MCHC,"tissue Blood, time 28 day",34.6%
same,MCV,"tissue Blood, time 28 day",55.9 fL
same,Mono,"tissue Blood, time 28 day",1.6%
same,Neu,"tissue Blood, time 28 day",17.2%
same,PT,"tissue Blood, time 28 day",14.2 s
same,Plat,"tissue Blood, time 28 day",104.1 x10_4/uL
same,RBC,"tissue Blood, time 28 day",768.8 x10_4/ul
same,Ret,"tissue Blood, time 28 day",2.7%
same,WBC,"tissue Blood, time 28 day",92.6 x10_2/uL
same,KIDNEY_L,time 7 day,1.1 g
same,KIDNEY_R,time 7 day,1.1 g
same,KIDNEY_TOTAL,time 7 day,2.2 g
same,KIDNEY_L,time 14 day,1.3 g
same,KIDNEY_R,time 14 day,1.3 g
same,KIDNEY_TOTAL,time 14 day,2.5 g
same,KIDNEY_L,time 28 day,1.5 g
same,KIDNEY_R,time 28 day,1.5 g
same,KIDNEY_TOTAL,time 28 day,2.9 g
same,LIVER,time 7 day,12.7 g
same,LIVER,time 14 day,14.7 g
same,LIVER,time 28 day,17 g
same,A/G,time 7 day,0.9
same,ALP,time 7 day,1493 IU/L
same,ALT,time 7 day,38 IU/L
same,AST,time 7 day,68.4 IU/L
same,BUN,time 7 day,14.2 mg/dL
same,CRE,time 7 day,0.2 mg/dL
same,Ca,time 7 day,11.4 mg/dL
same,Cl,time 7 day,106.2 meq/L
same,DBIL,time 7 day,0.01 mg/dL
same,GLC,time 7 day,190.4 mg/dL
same,IP,time 7 day,6.7 mg/dL
same,K,time 7 day,4.3 meq/L
same,LDH,time 7 day,105 IU/L
same,Na,time 7 day,143.2 meq/L
same,PL,time 7 day,148.4 mg/dL
same,RALB,time 7 day,2.6 g/dL
same,TBIL,time 7 day,0.03 mg/dL
same,TC,time 7 day,73 mg/dL
same,TG,time 7 day,119.4 mg/dL
same,TP,time 7 day,5.7 g/dL
same,gamma-GTP,time 7 day,1 IU/L
same,A/G,time 14 day,0.8
same,ALP,time 14 day,1698.4 IU/L
same,ALT,time 14 day,36 IU/L
same,AST,time 14 day,63.2 IU/L
same,BUN,time 14 day,13.8 mg/dL
same,CRE,time 14 day,0.3 mg/dL
same,Ca,time 14 day,11.2 mg/dL
same,Cl,time 14 day,105.2 meq/L
same,DBIL,time 14 day,0.004 mg/dL
same,GLC,time 14 day,184 mg/dL
same,IP,time 14 day,7.1 mg/dL
same,K,time 14 day,4 meq/L
same,LDH,time 14 day,78.2 IU/L
same,Na,time 14 day,144 meq/L
same,PL,time 14 day,143.2 mg/dL
same,RALB,time 14 day,2.7 g/dL
same,TBIL,time 14 day,0.032 mg/dL
same,TC,time 14 day,68.6 mg/dL
same,TG,time 14 day,108.6 mg/dL
same,TP,time 14 day,5.9 g/dL
same,gamma-GTP,time 14 day,1 IU/L
same,A/G,time 28 day,0.8
same,ALP,time 28 day,1171.8 IU/L
same,ALT,time 28 day,32.4 IU/L
same,AST,time 28 day,58.2 IU/L
same,BUN,time 28 day,14.8 mg/dL
same,CRE,time 28 day,0.3 mg/dL
same,Ca,time 28 day,11.1 mg/dL
same,Cl,time 28 day,105.2 meq/L
same,DBIL,time 28 day,0.006 mg/dL
same,GLC,time 28 day,192.8 mg/dL
same,IP,time 28 day,6.9 mg/dL
same,K,time 28 day,4 meq/L
same,LDH,time 28 day,104 IU/L
same,Na,time 28 day,144.4 meq/L
same,PL,time 28 day,133.8 mg/dL
